One may read the IC50 as the point on the concentration scale where inhibition reaches its midpoint.

Where two headings read alike, the source gives them in different places.

Data on one compound can be found in publication PMC11680018, “Study of Cytotoxicity of Spiro-Fused [3-Azabicyclo[3.1.0]hexane]oxindoles and Cyclopropa[a]pyrrolizidine-oxindoles Against Tumor Cell Lines” (Pharmaceuticals, 2024).

Assay [1] concerns human melanoma (Sk-mel-2) cell line. Put plainly: Cell motility by scratch test. Format: cell-based. Conditions: 10 μg/mL, 36 h, serum-free DMEM; nontreated cells 69.5 ± 17.2. The protocol:
To assess the potential ability of spiro-fused [3-azabicyclo[3.1.0]hexane]oxindoles 4, 11, 12, 18, 24 and cyclopropa[a]pyrrolizidine-2,3′-oxindole 2 to inhibit metastasis associated with cell motility, a scratch test was performed on the human melanoma (Sk-mel-2) cell line. Different fields were analyzed by bright field, and each scratch area was photographed at 0 and 36 h for non-toxic and fast cell visualization. Nontreated Sk-mel-2 cells filled 69.5 ± 17.2, 41.5 ± 5.3, 59.7 ± 8.1, 49.3 ± 5.3, 43.0 ± 12.6, 26.1 ± 2.5 and 55.9 ± 8.6% of the scratched strip while under treatment with spiro-fused oxindole derivatives 2, 4, 11, 12, 18 and 24 cells, respectively.
Cells were seeded at a density of 5 × 10^5 cells per dish onto petri dishes and grown to confluency. A 200 μL pipette tip was used to make scratch wounds and detached cells were removed after that by washing with phosphate-buffered saline. Culture media was replaced with serum-free DMEM in order to inhibit cell proliferation. Compounds to be screened were added at a dose of 10 μg/mL to the cultures and incubated for 36 h. Different fields were analyzed by bright field, and each scratch area was photographed at 0 and 36 h. Images were captured using an Axio Observer Z1 confocal microscope (Carl Zeiss MicroImaging GmbH, Jena, Germany). The percent of wound closure in five randomly chosen fields was calculated with ImageJ software, 1.52v.

In assay [2] the test system is cervical carcinoma (HeLa) cell line. Kind of assay: MTS cell proliferation assay, HeLa. The assay is classed as cell-based, human. Conditions: Homo sapiens, HeLa, MTS. The protocol: (§1) Cancer cell lines are valuable in vitro model systems that are widely used in cancer research and drug discovery. Their use is mainly linked to their possibility to provide for experimental purposes an unlimited source of biological material. Here, the 24 and 72 h in vitro MTS assay was used to determine the antiproliferative activity of synthesized spiro-fused cyclopropa[a]pyrrolizidine-2,3′-oxindoles and [3-azabicyclo[3.1.0]hexane]-oxindoles against human erythroleukemia (K562), acute T cell leukemia (Jurkat), cervical carcinoma (HeLa), melanoma (Sk-mel-2), breast cancer adenocarcinoma (MCF-7) as well as mouse colon carcinoma (CT26) cell lines. […] The full results of these investigations are presented in the Supporting Information Figures S1–S6. […] An evaluation of the cytotoxicity of the selected compounds towards normal cells (peripheral blood mononuclear cells) was performed additionally to understand their respective relative selectivities. The selectivity index was obtained using the ratio of measured cytotoxicity between the PBMC cells and each of the cancer cell lines, and the results are presented in Table 3.
(§2) The human erythroleukemia (K-562), cervical carcinoma (HeLa) as well as mouse colon carcinoma (CT26) cell lines were obtained from the Bank of Cell Cultures of the Institute of Cytology of the Russian Academy of Sciences; the human melanoma (Sk-mel-2) cell line was obtained from the Bank of Cell Cultures of the Institute of Cytology and Genetics, Siberian Branch of the Russian Academy of Sciences. The acute T cell leukemia (Jurkat) cell line was obtained from the Bank of Cell Cultures of the Institute of Immunology of the Russian Academy of Medical Sciences. The peripheral blood mononuclear cells (PBMC) were isolated from the blood of healthy donors. K-562, Jurkat, MCF-7, PBMC and CT26 cells were grown on RPMI medium (Hyclone, GE Healthcare Life Sciences, Logan, UT, USA) supplemented with 10% (v/v) fetal bovine serum (Hyclone, GE Healthcare Life Sciences, Logan, UT, USA) and gentamicin (Sigma-Aldrich, St. Louis, MO, USA) at 37 °C in a humidified atmosphere with 5% CO2. HeLa and Sk-mel-2 cells were cultured with the same supplements and conditions in DMEM medium (Hyclone, GE Healthcare Life Sciences, Logan, UT, USA).
(§3) To evaluate the in vitro toxicity of the compounds synthesized, cells were seeded into 96-well plates at a density of 5 × 10^3 cells per well. On the next day, the tested compounds were added to the wells at concentrations ranging from 1 to 30 μg/mL, followed by incubation for 1 and 3 days. Cell proliferation was determined by adding 20 μL of MTS reagent (BioVision, Milpitas, CA, USA) stock solution per well. The plates were incubated for 2 h at 37 °C in a humidified, 5% CO2 atmosphere. The plates were then read at 495 nm using a plate spectrophotometer (Multiskan GO, Thermo Fisher Scientific, Waltham, MA, USA). All samples were measured in triplicate.

The subject of assay [3] is human erythroleukemia (K562) cell line. Kind of assay: MTS cell proliferation assay, K562. Conditions: Homo sapiens, MTS. The assay is classed as cell-based. On the procedure: as §1, §2, §3
In assay [4] the test system is mouse colon carcinoma (CT26) cell line. Put plainly: MTS cell proliferation assay, CT26. The assay is classed as cell-based. The settings on record: Mus musculus, MTS. On the procedure:
as §1, §2, §3
(Tetrazolium assays rely on reduction of a dye to a coloured formazan, in cell work by metabolically active cells.)

Assay [5] relates to melanoma (Sk-mel-2) cell line. Kind of assay: MTS cell proliferation assay, Sk-mel-2. The assay is classed as cell-based, human. The settings on record: Homo sapiens, MTS. The protocol: as §1, §2, §3

On to `COC(=O)C1C2(c3ccccc3)C(Cc3c[nH]c4ccccc34)NC3(C(=O)Nc4ccccc43)C12c1ccccc1` (stereo not drawn) [Compound 11], for which the “Part of the scratched strip filled by Sk-mel-2 cells” value in assay [1] is 49.3 ± 5.3%. The IC50 is 15 ± 2 µM in assay [2] (read-out: IC50 HeLa 24 h, 24 h); 22 ± 2 µM in assay [2] (72 h, read-out: IC50 HeLa 72 h); 7 ± 1 µM in assay [3] (read-out: IC50 K562 24 h, K562, 24 h); 7 ± 1 µM in assay [3] (K562, 72 h, read-out: IC50 K562 72 h); above 40 µM in assay [4] (read-out: IC50 CT26 24 h, CT26, 24 h); 19 ± 2 µM in assay [4] (CT26, 72 h, read-out: IC50 CT26 72 h). Besides, the concentration for half-maximal inhibition (IC50) in assay [5] (read-out: IC50 Sk-mel-2 24 h, Sk-mel-2, 24 h) turned out to be 33 ± 3 µM; in assay [5] (Sk-mel-2, 72 h, read-out: IC50 Sk-mel-2 72 h), 15 ± 1 µM.
